In PubChem BioAssay (NCI):
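Results reflect a 48-hour exposure of cells in 96-well plates to compound at five concentrations. TGI: total growth inhibition.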

How the values were obtained:
Assay in all cases: NCI-60 cell line screen, 48 h
[1] = test system: EKVX NSCLC
[2] = test system: LOX IMVI melanoma
[3] = test system: 786-0 renal
[4] = test system: UACC-62 melanoma
[5] = test system: DMS 273 small cell lung
[6] = test system: XF 498 CNS
[7] = test system: ACHN renal
[8] = test system: MOLT-4 leukemia
[9] = test system: DMS 114 small cell lung
[10] = test system: A549 NSCLC
[11] = test system: SNB-19 CNS
[12] = test system: SK-MEL-5 melanoma
[13] = test system: SW-620 colon
[14] = test system: HL-60(TB) leukemia
[15] = test system: M19-MEL melanoma
[16] = test system: SR leukemia
[17] = test system: NCI-H522 lung
[18] = test system: HOP-18 NSCLC
[19] = test system: SK-MEL-28 melanoma
[20] = test system: SN12C renal
[21] = test system: M14 melanoma
[22] = test system: OVCAR-4 ovarian
[23] = test system: HCT-15 colon
[24] = test system: SK-OV-3 ovarian
[25] = test system: CAKI-1 renal
[26] = test system: NCI-H460 lung
[27] = test system: SNB-75 CNS
[28] = test system: MALME-3M melanoma
[29] = test system: OVCAR-3 ovarian
[30] = test system: SF-295 CNS
[31] = test system: OVCAR-5 ovarian
[32] = test system: TK-10 renal
[33] = test system: NCI-H23 lung
[34] = test system: HOP-92 NSCLC
[35] = test system: UO-31 renal
[36] = test system: U251 CNS
[37] = test system: KM20L2 colon
[38] = test system: OVCAR-8 ovarian
[39] = test system: HCC-2998 colon
[40] = test system: KM12 colon
[41] = test system: K-562 leukemia
[42] = test system: SK-MEL-2 melanoma
[43] = test system: IGROV1 ovarian
[44] = test system: HCT-116 colon
[45] = test system: HT29 colon
[46] = test system: A498 renal
[47] = test system: UACC-257 melanoma
[48] = test system: SF-268 CNS
[49] = test system: LXFL 529 NSCLC
[50] = test system: COLO 205 colon
[51] = test system: CCRF-CEM leukemia
[52] = test system: SNB-78 CNS
[53] = test system: SF-539 CNS
[54] = test system: RXF-631 renal
[55] = test system: RPMI-8226 leukemia
[56] = test system: HOP-62 NSCLC
[57] = test system: DLD-1 colon

`COc1cc(Nc2nc3cc(C)ccc3nc2-c2ccccc2)cc(OC)c1OC` was tested, and the TGI [1] was over 100 µM, the TGI [2] was over 100 µM and the TGI [3] was 33.9 µM. It also gave a TGI [4] of 63.6 µM, a TGI [5] of 49.6 µM and a TGI [6] of 42.1 µM. It also gave a TGI [7] of over 100 µM, a TGI [8] of 76.6 µM and a TGI [9] of 31.5 µM. For the same molecule, the TGI [10] was over 100 µM, the TGI [11] was over 100 µM and the TGI [12] was 35.1 µM. It also gave a TGI [13] of over 100 µM, a TGI [14] of 54.5 µM and a TGI [15] of 71 µM. The TGI [16] was 69.9 µM, the TGI [17] was 90.6 µM and the TGI [18] was 73.1 µM. For the same molecule, the TGI [19] was 55.1 µM, the TGI [20] was over 100 µM and the TGI [21] was over 100 µM. The TGI [22] was over 100 µM, the TGI [23] was 48.7 µM and the TGI [24] was over 100 µM. The TGI [25] was over 100 µM, the TGI [26] was 40 µM and the TGI [27] was over 100 µM. It also gave a TGI [28] of 56.8 µM, a TGI [29] of 41.8 µM and a TGI [30] of 56 µM. The TGI [31] was over 100 µM, the TGI [32] was over 100 µM and the TGI [33] was 57 µM. The TGI [34] was over 100 µM, the TGI [35] was 77.7 µM and the TGI [36] was over 100 µM. For the same molecule, the TGI [37] was over 100 µM, the TGI [38] was over 100 µM and the TGI [39] was 44.2 µM. For the same molecule, the TGI [40] was over 100 µM, the TGI [41] was over 100 µM and the TGI [42] was 45.3 µM. It also gave a TGI [43] of over 100 µM, a TGI [44] of 45.2 µM and a TGI [45] of 33.7 µM. The TGI [46] was over 100 µM, the TGI [47] was over 100 µM and the TGI [48] was over 100 µM. The TGI [49] was over 100 µM, the TGI [50] was 43.7 µM and the TGI [51] was over 100 µM.
In the case of `CCOC(=O)C1C(NC(N)=O)N(Cc2ccccc2)C(=O)N1Cc1ccccc1` (stereo not given), the TGI [1] is reported as over 100 µM, the TGI [2] is reported as over 100 µM and the TGI [3] is reported as over 100 µM. The TGI [4] was over 100 µM, the TGI [5] was over 100 µM and the TGI [6] was over 100 µM. For the same molecule, the TGI [52] was 29.2 µM, the TGI [7] was over 100 µM and the TGI [8] was over 100 µM. For the same molecule, the TGI [9] was over 100 µM, the TGI [10] was over 100 µM and the TGI [11] was over 100 µM. The TGI [12] was over 100 µM, the TGI [13] was over 100 µM and the TGI [14] was over 100 µM. For the same molecule, the TGI [15] was over 100 µM, the TGI [16] was over 100 µM and the TGI [17] was over 100 µM. For the same molecule, the TGI [18] was over 100 µM, the TGI [19] was over 100 µM and the TGI [53] was over 100 µM. The TGI [21] was over 100 µM, the TGI [22] was over 100 µM and the TGI [23] was over 100 µM. The TGI [24] was over 100 µM, the TGI [25] was over 100 µM and the TGI [26] was over 100 µM. The TGI [27] was over 100 µM, the TGI [54] was over 100 µM and the TGI [28] was over 100 µM. It also gave a TGI [29] of over 100 µM, a TGI [30] of over 100 µM and a TGI [55] of over 100 µM. It also gave a TGI [31] of over 100 µM, a TGI [32] of over 100 µM and a TGI [34] of over 100 µM. It also gave a TGI [35] of over 100 µM, a TGI [36] of 32 µM and a TGI [37] of over 100 µM. It also gave a TGI [38] of over 100 µM, a TGI [39] of over 100 µM and a TGI [40] of over 100 µM. For the same molecule, the TGI [41] was over 100 µM, the TGI [42] was over 100 µM and the TGI [43] was over 100 µM. For the same molecule, the TGI [56] was over 100 µM, the TGI [44] was over 100 µM and the TGI [45] was over 100 µM. It also gave a TGI [47] of over 100 µM, a TGI [48] of over 100 µM and a TGI [57] of over 100 µM. It also gave a TGI [49] of over 100 µM, a TGI [50] of over 100 µM and a TGI [51] of over 100 µM.
